From patent US6440680B1, “Methods of identifying modulators of prostaglandin receptor EP1” (Merck Frosst Canada, Inc., priority 1993, dated 2002)
pIC50, pKd: −log10 of the molar value.

Tests used:
EP1 receptor [1] = target: T1, EP1 receptor (Homo sapiens, UniProt P34995, A71T/L230H); experiment: [3H]PGE2 binding assay with membranes of pcDNA-EP1-transfected COS-M6 cells; set-up: expressed in transfected cells; host or cells: COS-M6 cells (membrane fraction); settings: for pIC50: 0.5 nM [3H]PGE2, FIG. 3B, read-out: IC50 for competition for [3H]PGE2 specific binding; for rank order of potency for competition for [3H]PGE2 specific binding: FIG. 3A, 0.03 nM-10 μM competitor
T1 sequence (P34995 1-402 A71T/L230H): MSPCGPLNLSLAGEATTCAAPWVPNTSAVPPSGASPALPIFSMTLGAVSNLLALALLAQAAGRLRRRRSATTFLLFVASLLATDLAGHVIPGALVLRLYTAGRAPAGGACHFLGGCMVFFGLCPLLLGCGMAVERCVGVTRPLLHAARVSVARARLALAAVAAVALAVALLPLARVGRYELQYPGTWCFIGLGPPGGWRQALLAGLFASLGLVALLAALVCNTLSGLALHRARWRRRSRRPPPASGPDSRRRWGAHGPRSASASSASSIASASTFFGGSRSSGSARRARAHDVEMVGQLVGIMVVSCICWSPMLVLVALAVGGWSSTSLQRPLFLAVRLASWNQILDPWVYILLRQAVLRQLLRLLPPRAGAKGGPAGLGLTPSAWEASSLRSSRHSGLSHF
Procedure: FIGS. 3A-3B—Competition for [^3H]PGE2 binding to pcDNA-EP1-transfected COS-M6 membranes: [^3H]PGE2 binding assays were performed as described in the Methods in the presence of Panel A: 0.03 nM-10 μM PGE2 (Δ), PGE1 (▪), PGF2α (□), PGD2 (●), Panel B: 3 nM-100 μM AH6809 (◯), SC19220 (Δ), and Butaprost (⋄). Butaprost and AH 6809 were generous gifts from Miles Inc. and Glaxo Group Research Ltd.
The pcDNA-EP1 plasmid was transfected into COS-M6 Cells using the DEAE-dextran method. The cells were maintained in culture for 72 h, then harvested and membranes prepared by differential centrifugation (1000×g or 10 min, then 100,000×g for 30 min) following lysis of the cells by nitrogen cavitation (Frey, et al., 1993). [3H]Prostaglandin E2 ([^3H]PGE2) binding assays were performed in 10 mM potassium phosphate (pH 6.0), containing 1 mM EDTA, 0.5 nM [^3H]PGE2 (154 Ci/mmol; DuPont-New England Nuclear) and 60-100 μg of protein from the 100,000×g membrane fraction. Incubations were conducted for 1 h at room temperature prior to separation of the bound and free radioligand by rapid filtration as previously described (Frey et al., 1993 Eur. J. Mol. Pharmacol., 244, pp 239-250). Residual [3H]PGE2 bound to the filter was quantitated by liquid scintillation counting. Specific binding was defined as the difference between total binding and non-specific binding, determined in the presence of 1 μM PGE2.

EP1 receptor [2] = target: T1, EP1 receptor; experiment: Aequorin luminescence assay in pcDNA-EP1-injected Xenopus oocytes; type: cell-based; settings: for agonist potency from dose-response of aequorin light emission: aequorin-loaded oocytes, FIG. 4E
Procedure: (§1) FIG. 4A-E—Expression of prostaglandin E2 receptor in Xenopus oocytes. Panel A: An inward Ca^2—dependent Cl^− current (shown as downward deflection) evoked by bath perfusion of 1 μM PGE2. The oocyte was injected with 5 ng of pcDNA-EP1 (Bam) and voltage-clamped at −60 mV. Panel B-D: PGE2-induced light responses in aequorin loaded oocytes. The intensity of aequorin light emission is expressed in relative units and the background emission typically was 0.5-0.7 units units. The PGE2 was injected into the recording cuvette at 10 s at a final concentration indicated on each trace Panel E; Light responses were evoked by different concentrations of PGE2 and PGF2α. Each bar represents the mean±s.e.m. of data from 10 to 15 oocytes from 4 donors. Data are expressed as the percentage of the response observed with 1 μM of PGE2.
Oocytes were taken from adult females of Xenopus laevis using standard surgical procedure (Colman, A., 1984 In: Transcription and Translation—A Practical Approach, IRL Press). To remove follicle cells, oocytes were treated for 2-3 h with freshly made collagenase (2 mg/ml, type 2, Worthington Biochemical Corp., Freehold, N.J.) in Ca^2+-free ND96 solution (ND96 in mM: NaCl 96, KCl 2, MgCl2 1, HEPES 5, Na-pyruvate 2.5, theophylline 0.5, gentamicin […], +1.8 CaCl2, pH 7.6). […] Functional activity was determined by measurement of either agonist-induced Ca^2+-dependent Cl^− current or light emission in oocytes injected with the Ca^2+-specific photoprotein aequorin (J. Blinks, Friday Harbor Photoproteins, Washington), (Giladi and Spindel 1991 Biotechniques, 10, pp 744-747). […] Ligand-containing solution was perfused and the current response was recorded. For the luminometric assay, aequorin-loaded oocytes (100 ng/ooctye) were placed individually in cuvettes containing 0.4 ml ND96 and the light emission provoked by ligand addition was recorded using a Bio-Orbit 1251 luminometer (Fisher Sci. Ltd.).
Functional activity was determined in pcDNA-EP1-injected oocytes using electrophysiological and aequorin luminescence assays. […]

EP1 receptor [3] = target: T1, EP1 receptor; experiment: Electrophysiological assay (Ca2+-dependent Cl- current) in pcDNA-EP1-injected Xenopus oocytes; type: cell-based; settings: bath perfusion of 1 μM PGE2, voltage clamped at -60 mV
Procedure: as §1
Oocytes were taken from adult females of Xenopus laevis using standard surgical procedure (Colman, A., 1984 In: Transcription and Translation—A Practical Approach, IRL Press). […] Functional activity was determined by measurement of either agonist-induced Ca^2+-dependent Cl^− current or light emission in oocytes injected with the Ca^2+-specific photoprotein aequorin (J. Blinks, Friday Harbor Photoproteins, Washington), (Giladi and Spindel 1991 Biotechniques, 10, pp 744-747). […] Ligand-containing solution was perfused and the current response was recorded. […]

thromboxane receptor = target: T2, thromboxane receptor (Homo sapiens, UniProt P21731); experiment: Binding of SQ-29548 in human embryonic kidney 293 cells and membranes transfected with thromboxane-receptor cDNA
T2 construct: use of Vent polymerase (New England Biolabs) enabled amplification of the complete cDNA; expressed in transfected cells; host or cells: human embryonic kidney 293 cells and membranes
T2 sequence (P21731 1-343): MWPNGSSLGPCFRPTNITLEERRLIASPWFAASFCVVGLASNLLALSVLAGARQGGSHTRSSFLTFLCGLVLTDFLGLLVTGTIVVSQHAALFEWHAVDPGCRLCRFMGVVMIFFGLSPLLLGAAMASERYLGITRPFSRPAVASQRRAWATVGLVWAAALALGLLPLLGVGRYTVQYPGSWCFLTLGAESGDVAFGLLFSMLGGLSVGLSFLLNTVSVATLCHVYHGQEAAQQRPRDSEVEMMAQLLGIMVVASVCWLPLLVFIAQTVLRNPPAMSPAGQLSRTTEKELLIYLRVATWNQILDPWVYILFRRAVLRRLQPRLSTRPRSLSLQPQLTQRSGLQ
Excerpt: The thromboxane receptor has been expressed in Xenopus oocytes. It can couple with endogenous signal transduction components to elicit a calcium-activated Cl^− current recorded by electrophysiological measurement using the procedure described by Hirata, M. et al., (1991), Nature, 349, pp. 617. Binding studies have been performed with COS-1 cell membranes transfected by thromboxane receptor cDNA using the ligand S-145 (Hirata, M. et al., (1991), Nature, 349, pp. 617). […] This level of expression is at least 5-10 times higher than in platelet membranes. On a per-cell basis assuming a 10% transfection efficiency, we estimate ≈10^6 binding sites/tranfected cell as compared to ≈1300 sites present on a platelet (Hourani, S. M. O. et al., (1991), Pharmacol. Rev., 43, pp. 243).

For CC(C)Oc1ccc2c(=O)c3cc(C(=O)O)ccc3oc2c1 [AH 6809], the pIC50 (EP1 receptor [1]) was ~6.30.
In the case of CCCCC[C@H](O)/C=C/[C@H]1C(=O)C[C@H](O)[C@@H]1C/C=C\CCCC(=O)O [PGD2], the “rank order of potency for competition for [3H]PGE2 specific binding” value (“rank order of potency for competition” for short) (EP1 receptor [1]) was “PGE2>PGE1>PGF2α>>PGD2”.
In the case of CCCCC[C@H](O)/C=C/[C@H]1[C@H](O)CC(=O)[C@@H]1CCCCCCC(=O)O [PGE1], the “rank order of potency for competition” value (EP1 receptor [1]) was “PGE2>PGE1>PGF2α>>PGD2”.
In the case of CCCCC[C@H](O)/C=C/[C@H]1[C@H](O)CC(=O)[C@@H]1C/C=C\CCCC(=O)O [PGE2], the “rank order of potency for competition” value (EP1 receptor [1]) was “PGE2>PGE1>PGF2α>>PGD2”, the “agonist potency from dose-response of aequorin light emission” value (EP1 receptor [2]) was “more potent agonist of the expressed receptor when compared to PGF2α” and the “intracellular calcium in pcDNA-EP1 injected oocytes” value (EP1 receptor [2]; oocytes challenged with PGE2) was “dose-dependent increase in intracellular calcium”. The “Ca2+-dependent Cl- current response” value (EP1 receptor [3]) was “prominent current responses”.
CCCCC[C@H](O)/C=C/[C@@H]1[C@@H](C/C=C\CCCC(=O)O)[C@@H](O)C[C@H]1O [PGF2α] was tested, and the “rank order of potency for competition” value (EP1 receptor [1]) was “PGE2>PGE1>PGF2α>>PGD2” and the “agonist potency from dose-response of aequorin light emission” value (EP1 receptor [2]) was “PGE2 was more potent agonist of the expressed receptor when compared to PGF2α”.
CC(=O)NNC(=O)N1Cc2ccccc2Oc2ccc(Cl)cc21 [SC 19220] gave a pIC50 (EP1 receptor [1]) of ~5.17.
In the case of O=C(O)CCC/C=C\C[C@@H]1[C@H](CNNC(=O)Nc2ccccc2)[C@H]2CC[C@@H]1O2 [SQ-29548], the “binding affinity” value (thromboxane receptor) was “high affinity binding” and the maximal binding (thromboxane receptor) was 2-3 pmol/mg protein.
CCCCC[C@H](O)/C=C/[C@H]1[C@H](O)CC(=O)[C@@H]1C/C=C\CCCC(=O)O [[^3H]PGE2, [3H]Prostaglandin E2] was tested, and the “maximum number of specific binding sites (Bmax)” value (EP1 receptor [1]; Scatchard analysis, pcDNA-EP1 transfected COS-M6 cell membranes) was “approximately 360 fmol/mg of protein” and the pKd (EP1 receptor [1]; Scatchard analysis, pcDNA-EP1 transfected COS-M6 cell membranes, read-out: equilibrium dissociation constant (KD)) was 9.00.
In the case of CCCC1([C@H](O)C/C=C/[C@H]2[C@H](O)CC(=O)[C@@H]2CCCCCCC(=O)OC)CCC1 [butaprost], the pIC50 (EP1 receptor [1]) was 4.30 and the “activity at the [3H]PGE2 specific binding sites” value (EP1 receptor [1]; FIG. 3B) was “relatively inactive”.
